Results on eight compounds are retold here after patent US11559528B2, “BACE1 inhibition for the treatment of cancer” (The Cleveland Clinic Foundation, priority 2019, dated 2023).

The structures appear in SMILES notation.

For data set [1], the system named is iPSC-derived M2 macrophages. Kind of data set: Fluorescent phagocytosis screening assay, iPSC-derived M2 macrophages against glioma cells. Type of data set: cell-based, human. As to conditions: for screen of drug libraries and known inhibitors for promoters of macrophage phagocytosis: hit: glioma cells and lung ADC cells.
For data set [2], the system named is H1002 and H146 lung cancer cells. Kind of data set: Cell titer viability assay on lung cancer cells. Type of data set: cell-based, human. As to conditions: indicated concentrations, 72 hours, n=3. How it is done: (A) Effects of BACE1 inhibitors on lung cancer cell proliferation. H1002 and H146 lung cancer cells were treated with the indicated concentrations of the BACE1 inhibitor AZD3293, MK-8931, AZD3839, or PF-06751979 (PF) for 72 hours. Cell viability was assessed by cell titer assay (n=3). (B-D) A preclinical trial of MK-8931 for lung cancer treatment in xenograft models. H1002 lung cancer cells (5×106) were transplanted into mouse right flank through subcutaneous injection to establish subcutaneous lung cancer xenografts. […] Tumors dissected from mice of each group were photographed (C) and weighed (D). […] Data are shown as mean SEM. p **<0.01, Student's t-test.

The conditions of data set [3]: patients, Phase I to Phase III; cited from earlier work.

With `Cn1cnc2c(F)c(Nc3ccc(Br)cc3Cl)c(C(=O)NOCCO)cc21` [AZD6244], the “screen of drug libraries and known inhibitors for promoters of macrophage phagocytosis: hit” value in data set [1] is recorded as “hits”.
Consider `NC1=N[C@@](c2cccc(-c3cncnc3)c2)(c2ccnc(C(F)F)c2)c2cccc(F)c21` [AZD3839], for which the “screen of drug libraries and known inhibitors for promoters of macrophage phagocytosis: hit” value in data set [1] is on record as “hits”. For the same compound, the “lung cancer cell proliferation (cell viability)” value (from here on “lung cancer cell proliferation”) in data set [2] is reported as “suppressed lung cancer cell proliferation”.
For the compound `CC#Cc1cncc(-c2ccc3c(c2)[C@@]2(N=C(C)C(N)=N2)[C@]2(CC[C@@H](OC)CC2)C3)c1` [AZD3293], in data set [1], the “macrophage phagocytosis against cancer cells” value is “promotes macrophage phagocytosis against cancer cells”; the “screen of drug libraries and known inhibitors for promoters of macrophage phagocytosis: hit” value is on record as “hits”. Also, the “lung cancer cell proliferation” value in data set [2] is on record as “suppressed lung cancer cell proliferation”. Moreover, the “tolerability / safety in AD clinical trials” value in data set [3] is given as “very safe for patients”.
`NC1=N[C@@]2(c3cc(NC(=O)c4cnc(C(F)F)cn4)ccc3F)CO[C@H](C(F)(F)F)[C@H]2CS1` [E2609]: in data set [1], the “macrophage phagocytosis against cancer cells” value was “promotes macrophage phagocytosis against cancer cells”; the “screen of drug libraries and known inhibitors for promoters of macrophage phagocytosis: hit” value is reported as “hits”.
As to `C[C@H]1C[C@H]2CSC(N)=N[C@@]2(c2nc(NC(=O)c3ccc(OC(F)F)cn3)cs2)CO1` [PF-06751979], the “screen of drug libraries and known inhibitors for promoters of macrophage phagocytosis: hit” value in data set [1] is “hits”. In data set [2], the “lung cancer cell proliferation” value is on record as “suppressed lung cancer cell proliferation”.
Take `C[C@@]1(c2cc(NC(=O)c3ccc(C#N)cn3)ccc2F)C=CSC(N)=N1` [JNJ-54861911]: in data set [1], the “screen of drug libraries and known inhibitors for promoters of macrophage phagocytosis: hit” value is “hits”.
With `C[C@@]1(c2nc(NC(=O)c3ncc(C(F)(F)F)cc3Cl)ccc2F)CO[C@@](C)(C(F)(F)F)C(N)=N1` [CNP520], in data set [1], the “macrophage phagocytosis against cancer cells” value is “promotes macrophage phagocytosis against cancer cells”; the “screen of drug libraries and known inhibitors for promoters of macrophage phagocytosis: hit” value is reported as “hits”. Besides, the “tolerability / safety in AD clinical trials” value in data set [3] is reported as “very safe for patients”.
Consider `CS[C@@]1(C(=O)Nc2ccc3[nH]nc(-c4ccc(OC(C)C)nc4)c3c2)CCN(CC(=O)N2CC=C(c3ccc(-c4ncn(C)n4)cc3)CC2)C1` [MK-8353], for which the “screen of drug libraries and known inhibitors for promoters of macrophage phagocytosis: hit” value in data set [1] is reported as “hits”.
